Earlier results in patent US20080051430A1, “Acylated Piperidine Derivatives as Melanocortin 4-Receptor Agonists” (priority 2004, published 2008).

Experiments:
[1] = system: men with a variety of organic risk factors; conditions: subcutaneous injection; compared with placebo
[2] = system: males with psychogenic erectile dysfunction
[3] = in vivo, po

## Ac-Nle-c[Asp-His-DPhe-Arg-Trp-Lys]-NH2 [MT-II]
[1]
  level of sexual desire: significantly higher
[2]; in vivo
  duration of action: approximately 2.5 hours
  time to onset of erection: 10 to 20 min
[2]; injected intramuscularly or subcutaneously
  response rate: 75%
[3]
  absorption into the systemic circulation: not absorbed into the systemic circulation
